Literature values as cited in paper PMC8583718, “Transient Fluorescence Labeling: Low Affinity—High Benefits” (International Journal of Molecular Sciences, 2021).
Values joined by “and” are separate entries in the source; they are usually repeats but may differ in a detail not shown here. Identical values can stand only once. Like-named read-outs stand apart in the source and are kept apart here. Values belong to the molecule of their own block, whether it stands above or below them.

Columns and labels:
mFAP1 = target: mFAP1; parameters: method as in PMID 30209393; details: mFAP1 with DFHBI; read-out: dissociation constant
mFAP2 = target: mFAP2; parameters: method as in PMID 30209393; details: mFAP2 with DFHBI; read-out: dissociation constant
[1] = target: dimeric transcription factors LmrR and RamR; parameters: method as in PMID 33913682; details: modified LmrR and RamR
Y-FAST = system: Y-FAST; parameters: method as in PMID 26711992
DNA = target: DNA; parameters: method as in PMID 26423723; details: staining of DNA
UnaG = target: UnaG; parameters: method as in PMID 23768684; details: bilirubin–UnaG
actin structures = system: actin structures; parameters: method as in PMID 26317264; details: compared among actin tags
F-actin [2] = target: F-actin; parameters: method as in PMID 18536722
G-actin = system: G-actin; parameters: method as in PMID 18536722; details: G-actin compared with F-actin
microtubules [3] = target: microtubules; parameters: method as in PMID 12773533; details: interaction with microtubules
[4] = target: protein–fluorogen complexes; details: UnaG system
microtubules [5] = target: microtubules; parameters: method as in PMID 29662074; details: interaction with microtubules
F-actin [6] = target: F-actin; parameters: method as in PMID 15826935; details: binding to F-actin

Molecule: CC1=N/C(=C\c2cc(F)c(O)c(F)c2)C(=O)N1C [DFHBI, 3,5-difluoro-4-hydroxybenzylidene imidazolinone]
Kd (mFAP1): 180 nM
Kd (mFAP2): 560 nM
Dissociation constants [1]: submicromoles to several micromoles

Molecule: Cc1cc(C=C2SC(=S)NC2=O)ccc1O [HMBR, 4-hydroxy-3-methylbenzylidene rhodanine]
residence time in the complex (Y-FAST; 25 °C, HMBR–Y-FAST): 160 ms
Kd (Y-FAST; HMBR in complex with Y-FAST): ~130 nM

Molecule: CN1CCN(c2ccc3nc(-c4ccc5nc(-c6ccc(OCCCCNC(=O)c7ccc(C(=O)[O-])c(C8=C9C=CC(=[N+](C)C)C=C9[Si](C)(C)c9cc(N(C)C)ccc98)c7)cc6)[nH]c5c4)[nH]c3c2)CC1 [SiR-Hoechst]
Kd (DNA): 8400 nM

Molecule: F-tractin: residues 10–52 of rat inositol 1,4,5-triphosphate-3-kinase A (MARPRGAGPCSPGLERAPRRSVGELRLLFEARCAAVAAAAAAG; UniProt P17105 10-52, looked up, fragment)
exchange rate (actin structures): highest exchange rate among all actin tags

Molecule: Lifeact: short (17 amino acids) fragment of actin filament-binding protein Abp140 from Saccharomyces cerevisiae
Kd (F-actin [2]; affinity to F-actin): ~2200 nM and 2200 nM
exchange of probes (F-actin [2]; on F-actin): ≤ 0.4 s
higher affinity to G-actin (G-actin): 10 fold

B1: MAP4: microtubule-associated protein (protein, UniProt P27816 2-1152, looked up)
Microtubule-associated …: ADLSLADALTEPSPDIEGEIKRDFIATLEAEAFDDVVGETVGKTDYIPLLDVDEKTGNSESKKKPCSETSQIEDTPSSKPTLLANGGHGVEGSDTTGSPTEFLEEKMAYQEYPNSQNWPEDTNFCFQPEQVVDPIQTDPFKMYHDDDLADLVFPSSATADTSIFAGQNDPLKDSYGMSPCNTAVVPQGWSVEALNSPHSESFVSPEAVAEPPQPTAVPLELAKEIEMASEERPPAQALEIMMGLKTTDMAPSKETEMALAKDMALATKTEVALAKDMESPTKLDVTLAKDMQPSMESDMALVKDMELPTEKEVALVKDVRWPTETDVSSAKNVVLPTETEVAPAKDVTLLKETERASPIKMDLAPSKDMGPPKENKKETERASPIKMDLAPSKDMGPPKENKIVPAKDLVLLSEIEVAQANDIISSTEISSAEKVALSSETEVALARDMTLPPETNVILTKDKALPLEAEVAPVKDMAQLPETEIAPAKDVAPSTVKEVGLLKDMSPLSETEMALGKDVTPPPETEVVLIKNVCLPPEMEVALTEDQVPALKTEAPLAKDGVLTLANNVTPAKDVPPLSETEATPVPIKDMEIAQTQKGISEDSHLESLQDVGQSAAPTFMISPETVTGTGKKCSLPAEEDSVLEKLGERKPCNSQPSELSSETSGIARPEEGRPVVSGTGNDITTPPNKELPPSPEKKTKPLATTQPAKTSTSKAKTQPTSLPKQPAPTTIGGLNKKPMSLASGLVPAAPPKRPAVASARPSILPSKDVKPKPIADAKAPEKRASPSKPASAPASRSGSKSTQTVAKTTTAAAVASTGPSSRSPSTLLPKKPTAIKTEGKPAEVKKMTAKSVPADLSRPKSTSTSSMKKTTTLSGTAPAAGVVPSRVKATPMPSRPSTTPFIDKKPTSAKPSSTTPRLSRLATNTSAPDLKNVRSKVGSTENIKHQPGGGRAKVEKKTEAAATTRKPESNAVTKTAGPIASAQKQPAGKVQIVSKKVSYSHIQSKCGSKDNIKHVPGGGNVQIQNKKVDISKVSSKCGSKANIKHKPGGGDVKIESQKLNFKEKAQAKVGSLDNVGHLPAGGAVKTEGGGSEAPLCPGPPAGEEPAISEAAPEAGAPTSASGLNGHPTLSGGGDQREAQTLDSQIQETSI
Kd (microtubules [3]): ~300 nM

B3: MAP7: microtubule-associated protein (protein, UniProt Q14244 2-749, looked up)
Ensconsin: AELGAGGDGHRGGDGAVRSETAPDSYKVQDKKNASSRPASAISGQNNNHSGNKPDPPPVLRVDDRQRLARERREEREKQLAAREIVWLEREERARQHYEKHLEERKKRLEEQRQKEERRRAAVEEKRRQRLEEDKERHEAVVRRTMERSQKPKQKHNRWSWGGSLHGSPSIHSADPDRRSVSTMNLSKYVDPVISKRLSSSSATLLNSPDRARRLQLSPWESSVVNRLLTPTHSFLARSKSTAALSGEAASCSPIIMPYKAAHSRNSMDRPKLFVTPPEGSSRRRIIHGTASYKKERERENVLFLTSGTRRAVSPSNPKARQPARSRLWLPSKSLPHLPGTPRPTSSLPPGSVKAAPAQVRPPSPGNIRPVKREVKVEPEKKDPEKEPQKVANEPSLKGRAPLVKVEEATVEERTPAEPEVGPAAPAMAPAPASAPAPASAPAPAPVPTPAMVSAPSSTVNASASVKTSAGTTDPEEATRLLAEKRRLAREQREKEERERREQEELERQKREELAQRVAEERTTRREEESRRLEAEQAREKEEQLQRQAEERALREREEAERAQRQKEEEARVREEAERVRQEREKHFQREEQERLERKKRLEEIMKRTRRTEATDKKTSDQRNGDIAKGALTGGTEVSALPCTTNAPGNGKPVGSPHVVTSHQSKVTVESTPDLEKQPNENGVSVQNENFEEIINLPIGSKPSRLDVTNSESPEIPLNPILAFDDEGTLGPLPQVDGVQTQQTAEVI
Kd (microtubules [5]): ~470 nM

The remaining lines, values ahead:

Kd (UnaG): 0.098 nM
Molecule: C=CC1=C(C)/C(=C/c2[nH]c(Cc3[nH]c(/C=C4\NC(=O)C(C)=C4C=C)c(C)c3CCC(=O)O)c(CCC(=O)O)c2C)NC1=O [bilirubin]

Kd [4]: 0.098 nM
B2: UnaG: fluorogen-activating protein from Japanese eel muscle that reversibly binds bilirubin (protein, UniProt P0DM59 1-139, looked up)
Bilirubin-inducible …: MVEKFVGTWKIADSHNFGEYLKAIGAPKELSDGGDATTPTLYISQKDGDKMTVKIENGPPTFLDTQVKFKLGEEFDEFPSDRRKGVKSVVNLVGEKLVYVQKWDGKETTYVREIKDGKLVVTLTMGDVVAVRSYRRATE

Kd (F-actin [6]): 18600 nM
B4: Utr261: first 261 amino acid residues of utrophin, the filament-crosslinking protein (protein, UniProt P46939 1-261, looked up, fragment)
chain: MAKYGEHEASPDNGQNEFSDIIKSRSDEHNDVQKKTFTKWINARFSKSGKPPINDMFTDLKDGRKLLDLLEGLTGTSLPKERGSTRVHALNNVNRVLQVLHQNNVELVNIGGTDIVDGNHKLTLGLLWSIILHWQVKDVMKDVMSDLQQTNSEKILLSWVRQTTRPYSQVNVLNFTTSWTDGLAFNAVLHRHKPDLFSWDKVVKMSPIERLEHAFSKAQTYLGIEKLLDPEDVAVQLPDKKSIIMYLTSLFEVLPQQVTID
